Our source for the EC50 values is patent US12162867B2, “Inhibitors of RNA helicase DHX9 and uses thereof” (ACCENT THERAPEUTICS, INC., priority 2022, dated 2024).

Each structure is given as a SMILES string.

One experiment concerns circBRIP1 in HCT116 cells. As to the kind of experiment: DHX9 circBRIP1 cellular target engagement SYBR Green assay (qPCR). The format is cell-based. The note with it: Homo sapiens, HCT-116, circBRIP1, HCT116 cells; SyBr assay (marked ^+); read-out: DHX9 Cellular Target Engagement EC50. A general note: Quantitative PCR measures a nucleic acid by following its amplification.
As a reminder, the EC50 is the concentration giving half of the maximal effect. Consider `CC(=O)N1CCN(c2ccc(-n3cc(C(=O)Nc4cc(Br)cc(NS(C)(=O)=O)c4)cn3)nc2)CC1` [Example 86, 1-(5-(4-acetylpiperazin-1-yl)pyridin-2-yl)-N-(3-bromo-5-(methylsulfonamido)phenyl)-1H-pyrazole-4-carboxamide], for which the EC50 came out at 585 nM.
On the same count and under the same terms, for `CCS(=O)(=O)Nc1cc(Cl)cc(NC(=O)c2cc(-c3ncccn3)n(C)c2)c1` [Example 173, N-(3-chloro-5-(ethylsulfonamido)phenyl)-1-methyl-5-(pyrimidin-2-yl)-1H-pyrrole-3-carboxamide] the value was 118 nM; for `CS(=O)(=O)Nc1cc(Cl)cc(NC(=O)c2cc(-c3ncccc3Cc3ncccn3)cs2)c1` [Example 384], 122 nM.
The same measure, in the same setting: for `CCS(=O)(=O)Nc1cc(F)cc(NC(=O)c2cc(-c3ccccn3)cs2)c1` [Example 113] the value was 7440 nM.
Same read-out and setting: for `CS(=O)(=O)Nc1cc(Cl)cc(NC(=O)c2cnn(-c3ccccc3Oc3ncccn3)c2)c1` [Example 263] the value was above 10000 nM.
As to `CS(=O)(=O)Nc1cc(Cl)cc(NC(=O)c2cnn(CCc3ccccc3)c2)c1` [Example 308], the concentration giving a half-maximal response (EC50) is above 10000 nM.
For the compound `Cc1cccnc1-c1csc(C(=O)Nc2cc(Br)cc(NS(C)(=N)=O)c2)c1` (stereo not drawn) [Example 122], the 50% effective concentration (EC50) turned out to be 1290 nM.
Still for that read-out and setting: with `CS(=O)(=O)Nc1cc(Br)cc(NC(=O)c2cnn(-c3ccc(F)cn3)c2)c1` [Example 39] the figure was 884 nM.
On the same count and under the same terms, for `Cn1cc(C(=O)Nc2cc(Cl)cc(NS(C)(=O)=O)c2)cc1-c1ccccc1` [Example 109] the value was 437 nM.
The same measure, in the same setting: for `CC(C)C(=O)N1CCN(c2ccc(-n3cc(C(=O)Nc4cc(Cl)cc(NS(C)(=O)=O)c4)cn3)nc2)CC1` [Example 149, N-(3-chloro-5-(methylsulfonamido)phenyl)-1-(5-(4-isobutyrylpiperazin-1-yl)pyridin-2-yl)-1H-pyrazole-4-carboxamide] the value was 1800 nM; for `Cc1cc(C(=O)Nc2cc(Cl)cc(NS(C)(=O)=O)c2)cn1-c1ncc(N2CCOCC2)cc1F` [Example 320], 96.1 nM.
On to `Cc1sc(C(=O)Nc2cc(Br)cc(NS(C)(=N)=O)c2)cc1-c1ccccn1` (stereo not drawn) [Example 123], for which the EC50 worked out at 6590 nM.
The same measure, in the same setting: with `CS(=O)(=O)Nc1cc(Cl)cc(NC(=O)c2cc3ccc(F)cc3s2)c1` [Example 294] the figure was above 10000 nM.
On the same count and under the same terms, for `CS(=O)(=O)Nc1cc(Br)cc(NC(=O)c2cnn(-c3ccccc3C=O)c2)c1` [Example 58] the value was 1410 nM; for `CS(=O)(=O)Nc1cc(Cl)cc(NC(=O)c2cnn(CCO)c2)c1` [Example 127], above 10000 nM.
Still for that read-out and setting: with `CS(=O)(=O)Nc1cc(Cl)cc(NC(=O)c2cc(-c3ccccc3)n(CC(F)(F)F)c2)c1` [Example 80] the figure was 3090 nM; with `CS(=O)(=O)Nc1cc(Cl)cc(NC(=O)c2cnn(-c3ccc(C4CCOCC4)cn3)c2)c1` [Example 190], 373 nM.
With `CC(=O)NC1CC2(C1)CC(n1cc(C(=O)Nc3cc(Cl)cc(NS(C)(=O)=O)c3)cn1)C2` (stereo not drawn) [Example 310], the EC50 was above 10000 nM.

The same experiment, now with this note: Homo sapiens, HCT-116, circBRIP1, HCT116 cells; ^+ SyBr assay was used; read-out: DHX9 Cellular Target Engagement EC50.
For the compound `CS(=O)(=O)Nc1cc(Cl)cc(NC(=O)c2cc(Cl)n(-c3ncc(F)cn3)c2)c1` [Example 709], the 50% effective concentration (EC50) came out at 1240 nM.
On the same count and under the same terms, for `Cc1sc(C(=O)Nc2cc(Cl)cc(NS(C)(=O)=O)c2)cc1-n1cc(F)cn1` [Example 439] the value was 199 nM; for `CN1CCN(c2csc(C(=O)Nc3cc(Cl)cc(NS(C)(=O)=O)c3)c2)CC1=O` [Example 661], above 10000 nM.
Still for that read-out and setting: with `Cc1sc(C(=O)Nc2cc(Cl)cc(NS(C)(=O)=O)c2)cc1N1CCCC1=O` [Example 434] the figure was 2320 nM.
Regarding `Cc1sc(C(=O)Nc2cc(Cl)cc(NS(C)(=O)=O)c2)cc1-c1cn(C2CCOCC2)nn1` [Example 692], the EC50 stood at 142 nM.
On the same count and under the same terms, for `CS(=O)(=O)Nc1cc(Cl)cc(NC(=O)c2cc(C(=O)N3CC4(CNC4)C3)n(-c3ccccn3)c2)c1` [Example 643] the value was above 10000 nM.
Same read-out and setting: with `Cc1ncccc1-c1cc(F)cnc1-c1cc(C(=O)Nc2cc(Cl)cc(NS(C)(=O)=O)c2)sc1C` [Example 608] the figure was 422 nM; with `CS(=O)(=O)Nc1cc(Cl)cc(NC(=O)c2cc(C(=O)N3CCN(c4ccccc4)CC3)n(-c3ccccn3)c2)c1` [Example 654], 5310 nM; with `Cc1cc(C(=O)Nc2cc(Cl)cc(NS(C)(=O)=O)c2)cn1-c1ncc(C(F)(F)F)cn1` [Example 426], 226 nM.

The test system of a further experiment is circBRIP1 in HCT116 cells. The experiment is described as follows: DHX9 circBRIP1 cellular target engagement TaqMan Multiplex assay (qPCR). The format is cell-based. Conditions: Homo sapiens, HCT-116, 72 h, circBRIP1, HCT116 cells, 72 hours; Taqman assay (marked *); read-out: DHX9 Cellular Target Engagement EC50.
Turning to `CS(=O)(=O)Nc1cc(Cl)cc(NC(=O)c2cc(-c3ccc(C(F)(F)F)cn3)cs2)c1` [Example 370], the 50% effective concentration (EC50) turned out to be 0.171 µM.
On the same count and under the same terms, with `CCCS(=O)(=O)Nc1cc(Cl)cc(NC(=O)c2cc(-c3ncccc3C)cs2)c1` [Example 372] the figure was 2.12 µM.
Same read-out and setting: with `Cn1cc(C(=O)Nc2cc(Cl)cc(NS(C)(=O)=O)c2)cc1-c1ncc(F)cc1OC(F)F` [Example 363] the figure was 0.171 µM; with `Cc1sc(C(=O)Nc2cc(Cl)cc(NS(C)(=O)=O)c2)cc1-c1c(F)cc(F)cc1F` [Example 378], 0.361 µM.
As to `Cc1sc(C(=O)Nc2cc(Cl)cc(NS(C)(=O)=O)c2)cc1-c1ncc(C(F)(F)F)cn1` [Example 357], the concentration giving a half-maximal response (EC50) turned out to be 0.119 µM.
On the same count and under the same terms, with `Cc1cccnc1-c1csc(C(=O)Nc2cc(Cl)cc(NS(=O)(=O)C(C)C)c2)c1` [Example 373] the figure was 0.506 µM; with `CS(=O)(=O)Nc1cc(Cl)cc(NC(=O)c2cc(-c3ncc(C(F)(F)F)cc3F)cs2)c1` [Example 371], 0.311 µM.

The experiment is the same for the next values; noted with them: Homo sapiens, HCT-116, circBRIP1, HCT116 cells; * Taqman assay was used; read-out: DHX9 Cellular Target Engagement EC50.
As for `Cc1cc(C(=O)Nc2cc(Cl)cc(NS(C)(=O)=O)c2)cn1-c1ncc(N2CC(F)(F)C2)cc1OC(C)C` [Example 672], the EC50 stood at 0.154 µM.
The same measure, in the same setting: with `Cn1cc(C(=O)Nc2cc(Cl)cc(NS(C)(=O)=O)c2)cc1-c1ccc(N2CC(S(C)(=O)=O)C2)cn1` [Example 519] the figure was 0.191 µM; with `CCc1sc(C(=O)Nc2cc(Cl)cc(NS(C)(=O)=O)c2)cc1-c1ccc(F)cn1` [Example 589], 0.117 µM.
In the case of `Cc1ccnc(OCc2cncc(F)c2)c1-c1cc(C(=O)Nc2cc(Cl)cc(NS(C)(=O)=O)c2)cn1C` [Example 624], the concentration for a half-maximal effect (EC50) turned out to be 0.442 µM.
On the same count and under the same terms, for `CC(C)Oc1cc(N2CC(F)(F)C2)cnc1-c1cc(C(=O)Nc2cc(Cl)cc(NS(C)(=O)=O)c2)cn1C` [Example 513] the value was 0.133 µM.
Same read-out and setting: with `Cc1sc(C(=O)Nc2cc(Cl)cc(NS(C)(=O)=O)c2)cc1-c1ncc(OC(C)(C)C(=O)O)cn1` [Example 670] the figure was above 10 µM.
Still for that read-out and setting: for `Cc1cc(N2CC(F)(F)C2)cnc1-c1cc(C(=O)Nc2cc(Cl)cc(NS(C)(=O)=O)c2)cn1C` [Example 461] the value was 0.158 µM; for `CS(=O)(=O)Nc1cc(Cl)cc(NC(=O)c2cc(-c3ncc(F)cn3)n(C3CNC3)c2)c1` [Example 652], 3.77 µM; for `CCS(=O)(=O)Nc1cc(Cl)cc(NC(=O)c2cc(C)n(-c3ncc(F)cc3F)c2)c1` [Example 445], 0.319 µM.
Regarding `Cc1sc(C(=O)Nc2cc(Cl)cc(NS(=O)(=O)CCO)c2)cc1-c1ncc(OC(C)C)cn1` [Example 582], the EC50 worked out at 0.21 µM.
Still for that read-out and setting: with `CN1CC[C@H](Oc2cnc(-c3cc(C(=O)Nc4cc(Cl)cc(NS(C)(=O)=O)c4)cn3C)c(F)c2)C1` [Example 639, N-(3-chloro-5-methanesulfonamidophenyl)-5-(3-fluoro-5-{[(3S)-1-methylpyrrolidin-3-yl]oxy}pyridin-2-yl)-1-methylpyrrole-3-carboxamide] the figure was 0.0266 µM; with `COc1ccc(F)c(-c2cc(C(=O)Nc3cc(Cl)cc(NS(C)(=O)=O)c3)cn2C)n1` [Example 703], 0.387 µM; with `Cn1cc(C(=O)Nc2cc(Cl)cc(NS(C)(=O)=O)c2)cc1-c1ncc(N2CCN(C(=O)C3CC3)CC2)cc1F` [Example 714], 0.181 µM.
For `CS(=O)(=O)Nc1cc(Cl)cc(NC(=O)c2cc(-c3ncc(OC4CN(S(C)(=O)=O)C4)cn3)n(CC(F)(F)F)c2)c1` [Example 651], the EC50 was found to be 0.535 µM.
For the compound `CC(C)n1cc(C(=O)Nc2cc(Cl)cc(NS(C)(=O)=O)c2)cc1-c1ncc(F)cn1` [Example 667], the EC50 was 0.804 µM.
Take `Cn1cc(C(=O)Nc2cc(Cl)cc(NS(C)(=O)=O)c2)cc1-c1c(F)cc(F)c[n+]1[O-]` [Example 567]: the EC50 is 0.34 µM.
Still for that read-out and setting: for `CS(=O)(=O)Nc1cc(Cl)cc(NC(=O)c2cc(-c3ncc(N4CC(F)(F)C4)cc3F)cs2)c1` [Example 488] the value was 0.285 µM; for `Cc1noc(C)c1COc1cc(F)cnc1-c1cc(C(=O)Nc2cc(Cl)cc(NS(C)(=O)=O)c2)cn1C` [Example 725], 0.625 µM; for `Cc1cc(C(=O)Nc2cc(Cl)cc(NS(C)(=O)=O)c2)cn1-c1ncc(N2CCC(F)(F)C2)cn1` [Example 409], 0.177 µM.
Same read-out and setting: with `Cc1sc(C(=O)Nc2cc(Cl)cc(NS(C)(=O)=O)c2)cc1-c1ncc(S(C)(=O)=O)cn1` [Example 711] the figure was 0.17 µM; with `Cn1cc(C(=O)Nc2cc(F)cc(NS(C)(=O)=O)c2)cc1-c1ncc(F)cc1F` [Example 558], 2.91 µM.
On the same count and under the same terms, for `Cc1cc(C(=O)Nc2cc(Cl)cc(NS(C)(=O)=O)c2)cn1-c1ncc(N2CC(F)(F)C2)cc1Cl` [Example 406] the value was 0.161 µM; for `Cn1cc(C(=O)Nc2cc(Cl)cc(NS(C)(=O)=O)c2)cc1-c1ncc(N2CCC3(CC2)CC3)cc1F` [Example 468], 0.269 µM.

Staying with this experiment, now noted: Homo sapiens, HCT-116, circBRIP1, HCT116 cells; cell carries no mark, SyBr or Taqman not indicated; read-out: DHX9 Cellular Target Engagement EC50.
Consider `Cc1sc(C(=O)Nc2cc(Cl)cc(NS(C)(=O)=O)c2)cc1-c1c(F)cc(F)c[n+]1[O-]` [Example 736], for which the EC50 was 0.372 µM.

Staying with this experiment, now noted: Homo sapiens, HCT-116, read-out: DHX9 Cellular Target Engagement EC50 (μM).
With `Cn1cc(C(=O)Nc2cc(Cl)cc(NS(C)(=O)=O)c2)cc1-c1ncc(N2CC[Si](C)(C)CC2)cc1F` [Example 470], the concentration for a half-maximal effect (EC50) worked out at 0.62 µM.
The same measure, in the same setting: with `Cc1sc(C(=O)Nc2cc(Cl)cc(NS(C)(=O)=O)c2)cc1-c1ncc(N2CC[Si](C)(C)CC2)cc1F` [Example 473] the figure was 0.426 µM.
